Patent publication US9499614B2, “Methods for modulating protein glycosylation profiles of recombinant protein therapeutics using monosaccharides and oligosaccharides” (AbbVie, Inc., priority 2013, dated 2016)

Experiments:
Type in all cases: cell-based, Chinese Hamster
Cell Line 1 [1] = experiment: N-glycan oligosaccharide profiling, Cell Line 1 shake flasks (Example 1)
Method: Two recombinant Chinese Hamster Ovary (CHO) cell lines expressing two different humanized monoclonal antibodies (Antibody 1, Antibody 2) were evaluated in two different culture vessels (shaker flasks and laboratory scale bioreactors). Both cell lines were of CHO DUX-B11 origin based on a dhfr (dihydrofolate reductase) expression system. Both cell lines were cultured in the same chemically defined basal media (CDBM), with Cell Line 1 also utilizing a chemically-defined feed media (CDFM). Each of the respective media were supplemented with selected monosaccharides and oligosaccharides to evaluate their potential impact on the resulting N-glycan oligosaccharide profile. In preparing the cultures, the cell lines were serially expanded through separate seed train inoculums to generate enough cells for inoculation.
(§1) Purified antibodies subjected to additional analytical characterization were purified using MabSelect™ Protein A (GE Healthcare, Piscataway, N.J.) using a low pH, step elution gradient, followed by buffer exchange using Corning Lifesciences (Tewksbury, Mass.) Spin Concentrator X UF columns according to the manufacturers' recommended procedures.
(§2) Approximately 200 μg of Protein A purified samples from Cell Lines 1 and 2 were treated with N-glycanase at 37° C. overnight to remove the N-glycans from the protein. The protein was precipitated and the supernatant was taken for subsequent chemical derivatization of the reducing end of the released glycans with 2-aminobenzamide (2-AB) dye. Following the derivatization step, the excess label was removed using clean up cartridges and the samples were analyzed using normal phase HPLC with fluorescent detection. Mobile phase A was 100% acetonitrile and mobile phase B was 50 mM ammonium formate pH 4.4. The glycans were eluted from a polyamide column (Prozyme, Hayward, Calif.) using a shallow gradient. The labeled glycans were detected using a fluorescence detector with an excitation wavelength of 330 nm and an emission wavelength of 420 nm.
Cell Line 1 was cultured in shake flasks in fedbatch mode after an abbreviated seed train. Sucrose and tagatose were supplemented into chemically-defined basal and feed media at concentrations of 30, 50, and 70 mM, and compared to an unsupplemented control condition. The viable cell density (VCD), viability, and harvest titer results are shown in FIGS. 3A-3C and FIGS. 5A-5C for the sucrose, and tagatose conditions, respectively. Both sugars facilitated a slight decrease in VCD, with the higher concentrations also supporting the lowest peak VCD. […] As such, the upper threshold of sucrose or tagatose concentration should not be exceeded.

Cell Line 1 [2] = experiment: N-glycan oligosaccharide profiling, Cell Line 1 (Antibody 1) shake flasks (Example 2)
Method: (§3) Two recombinant Chinese Hamster Ovary (CHO) cell lines expressing two different recombinant glycoproteins were evaluated in two different cultures vessels (shaker flasks and 3 L laboratory scale bioreactors). Cell Line 1 expressed Antibody 1, Cell Line 2 expressed Dual Variable Domain Immunoglobulin 1 (DVD 1) and Cell Line 3 expressed Antibody 2. Antibodies 1 and 2 are IgG1 proteins, and DVD 1 is an immunoglobulin with two variable domains as documented previously (Wu C. et al., (2007) Nat. Biotechnol 25(11):1290-1297). All cell lines were of CHO DUX-B11 origin based on a dhfr (dihydrofolate reductase) expression system. All cell lines were cultured in the same chemically defined basal media. Cell lines 1 and 2 were fed with the same chemically-defined feed media, but Cell Line 1 was fed media that was formulated at a 50% higher concentration. Each of the respective media were supplemented with either sucrose or tagatose to evaluate their potential impact on the resulting N-glycan oligosaccharide profile. All sugars were purchased from Sigma-Aldrich (St. Louis, Mo.). In preparation of the cultures, the cell lines were serially expanded through separate seed train inoculums to generate enough cells for inoculation.
as §1, §2
Experimental results are expressed as mean±SD for those results generated from at least three independent cultures. Experimental results are expressed as the measured value for those results generated from less than three independent cultures. Results were evaluated for statistical significance through 2-sided t-tests, with a requirement of p<0.05 relative to the unsupplemented control conditions.
Cell Line 1 was cultured in shake flasks in fedbatch mode after an abbreviated seed train. Sucrose and tagatose were supplemented into chemically-defined basal and feed media at concentrations of 1, 10, 30, 50, and 70 mM, and compared to unsupplemented control conditions. The viable cell density (VCD), viability, and harvest titer results are shown in FIGS. 13A-13C for the sucrose supplemented cultures and FIGS. 14A-14C for the tagatose supplemented cultures.

Cell Line 3 = experiment: N-glycan oligosaccharide profiling, Cell Line 3 shake flasks (Example 2); conditions: 30 mM supplement vs control
Method: as §3, §1, §2
Cell Line 3 was evaluated in shake flask culture in chemically defined media supplemented with 7, 15, and 30 mM sucrose. There was a significant increase in overall mannosylation levels, and thus a significant decrease in overall fucosylation levels. […] This cumulative increase of 19% in overall mannosylated N-glycans was accompanied by a 27% drop in NGA2F species, the majority of which was precluded from being formed due to the abrogation of the N-glycan biosynthetic reaction shown in FIG. 2. […] Antibody 3, purified from the sucrose supplemented cell cultures, was tested in a Cr-51 release assay to evaluate effector function, specifically ADCC activity. This was performed to verify that the lower level of fucosylated N-glycans linked to Antibody 3 would facilitate an increase in ADCC activity. Antibodies purified from the 30 mM sucrose supplemented culture had the highest levels of high mannose N-glycans, and lowest levels of fucosylated N-glycans.

[3] = 70 mM supplement, absolute % change vs control

SMILES | cumulative increase in overall mannosylated N-glycans (Cell Line 1 [1]; 70 mM supplement vs control) | decrease in NGA2F species (Cell Line 1 [1]; 70 mM supplement vs control) | overall decrease in fucosylation level (Cell Line 1 [1]; 70 mM supplement vs control) | increase in Man 5 species (Cell Line 1 [1]; [3]) | increase in Man 6 species (Cell Line 1 [1]; [3]) | increase in Man 7 species (Cell Line 1 [1]; [3]) | cumulative increase in overall mannosylated N-glycans (Cell Line 1 [2]; 70 mM supplement vs control) | drop in NGA2F species (Cell Line 1 [2]; 70 mM supplement vs control) | increase in Man 5 species (Cell Line 1 [2]; 70 mM supplement vs control) | increase in Man 6 species (Cell Line 1 [2]; 70 mM supplement vs control) | increase in Man 7 species (Cell Line 1 [2]; 70 mM supplement vs control) | increase in Man 8 species (Cell Line 1 [2]; 70 mM supplement vs control) | increase in NGA2F-GlcNAc species (Cell Line 1 [2]; 70 mM supplement vs control) | overall decrease in the fucosylation level (Cell Line 1 [2]; 70 mM supplement vs control) | also measured
O=C(CO)[C@@H](O)[C@@H](O)[C@H](O)CO [tagatose] | 20% | 30% | 23% | ≤ 10% | 6% | 3% | 15% | 23% | 8% | 4% | 2% | 1% | 8% | 15% | increase in Man 8 species (Cell Line 1 [1]; [3]): 1%; N-glycan profiles compared to the control culture (Cell Line 1 [2]; 1, 10 and 30 mM): not practically different compared to the control culture
OC[C@H]1O[C@@](CO)(O[C@H]2O[C@H](CO)[C@@H](O)[C@H](O)[C@H]2O)[C@@H](O)[C@@H]1O [sucrose] | 43% | 51% | 44% | 24% | 12% | 7% | 37% | 44% | 19% | 10% | 6% | 2% | 8% | 37% | increase in NGA2F-GlcNAc species (Cell Line 1 [1]; 70 mM supplement vs control): 7%; decrease in NA1F species (Cell Line 1 [2]; 70 mM supplement vs control): 1%; overall N-glycan core fucosylation (Cell Line 1 [2]; 10, 30, 50 and 70 mM): decreased in a statistically significant manner; cumulative increase in overall mannosylated N-glycans (Cell Line 3): 19%; decrease in overall fucosylation level (Cell Line 3): 19%; drop in NGA2F species (Cell Line 3): 27%; increase in Man 5 species (Cell Line 3): 17%; increase in Man 6 species (Cell Line 3): 1%; increase in Man 7 species (Cell Line 3): 1%; increase in NGA2F-GlcNAc species (Cell Line 3): 8%
